Laboratory results: PMC4131461, “Antiviral Action of Synthetic Stigmasterol Derivatives on Herpes Simplex Virus Replication in Nervous Cells In Vitro” (BioMed Research International, 2014)

How the values were obtained:
[1] = MTT cytotoxicity assay in SH-SY5Y cells; format: cell-based; settings: human, SH-SY5Y cells (confluent nongrowing monolayers), 24 h incubation at 37°C
Protocol: (§1) Cell viability in the presence of different concentration of the compound was determined using the MTT assay. The absorbance of each well was measured on Eurogenetics MPR-A 4i microplate reader using a test wavelength of 570 nm and a reference wavelength of 630 nm. The CC50 was defined as the concentration of the compound that caused a 50% reduction in absorbance.
(§2) Fifty percent cytotoxic concentration (CC50) for PC-12, Neuro-2a, and SH-SY5Y cells was determined. Compounds 1 and 2 were added to confluent nongrowing cells in concentrations ranging from 1 to 144 μM and from 1 to 129 μM, respectively, and, after 24 h incubation at 37°C, a MTT colorimetric assay was performed.
(§3) Figure 2 Cytotoxic effect of compounds 1 and 2 in three nervous cell lines. (a) PC-12, (b) Neuro-2a, and (c) SH-SY5Y cells monolayers were incubated in the presence of different concentrations of compounds 1 and 2. After 24 h of incubation at 37°C cell viability was determined by the MTT assay. The CC50 was defined as the concentration of the compound that caused a 50% reduction in cell viability. Data are mean values from four separate experiments.

[2] = MTT cytotoxicity assay in Neuro-2a cells; format: cell-based, Murine; settings: mouse, Neuro-2a cells (confluent nongrowing monolayers), 24 h incubation at 37°C
Protocol: as §1, §2, §3

[3] = MTT cytotoxicity assay in PC-12 cells; format: cell-based; settings: rat, PC-12 cells (confluent nongrowing monolayers), 24 h incubation at 37°C
Protocol: as §1, §2, §3

[4] = tested on: HSV-1 Cgal; test: HSV-1 Cgal virus yield reduction in nervous cell lines (plaque assay); format: cell-based, herpes simplex virus type 1; settings: regardless of the virus strain used (KOS wt or Cgal); PC-12, Neuro-2a, SH-SY5Y cells; 10 μM compound 1 / 5 μM compound 2, 24 h
Protocol: (§4) Cells grown in 24-well plates were infected with HSV-1 KOS and, after virus adsorption, treated or not with the compounds. After 24 h of incubation at 37°C, supernatants were collected and titrated in Vero cells. Briefly, Vero cells grown in 24-well plates were infected with serial 10-fold dilutions of viral yields and incubated for 1 h at 37°C. Residual inocula were replaced by maintenance medium with 0.7% of methylcellulose. After 72 h of incubation at 37°C, cells were fixed with formaldehyde 10% and stained with Crystal Violet, and plaque forming units were counted.
(§5) Cells grown in coverslips inside 24-well plates were infected with HSV-1 Cgal. After adsorption, inocula were eliminated and cells were covered with MEM 1.5%. At 24 h after infection (p.i.), supernatants were harvested and stored at −70°C for titration, and cells were stained in situ for β-gal. Coverslips were mounted, observed with an Olympus BX61 microscope, and photographed.
Figure 3 Effect of compounds 1 and 2 on HSV-1 virus yield reduction. (a) PC-12, (b) Neuro-2a, and (c) SH-SY5Y cells were infected with HSV-1 KOS (black bars) and HSV-1 Cgal (grey bars) and incubated for 1 h at 37°C. Then, cells were covered with DMEM/F12 2% or media containing 10 μM of compound 1 and 5 μM of compound 2. After 24 h supernatants were harvested and viral titres were determined by plaque assay. […]

[5] = tested on: HSV-1 Cgal; test: HSV-1 Cgal propagation, in situ beta-gal staining; format: cell-based, herpes simplex virus type 1; settings: PC-12, Neuro-2a, SH-SY5Y cells, m.o.i. 1, 10 μM of 1 / 5 μM of 2, 24 h
Protocol: as §5
We have previously reported that compounds 1 and 2 inhibit HSV-1 propagation in IOBA-NHC cells. To investigate the effect of both compounds on viral propagation, PC-12, Neuro-2a, and SH-SY5Y cells grown in coverslips inside 24-well plates were infected with HSV-1 Cgal (m.o.i. = 1) and, then, treated with control media, 10 μM of 1 and 5 μM of 2. After 24 h incubation at 37°C, cells were stained in situ for β-gal. […] Therefore, both compounds would prevent HSV-1 Cgal spreading in all nervous cell lines assayed when added after infection.
Figure 4 Effect of compounds 1 and 2 on HSV-1 propagation. (a) PC-12, (b) Neuro-2a, and (c) SH-SY5Y cells monolayers grown in coverslips inside 24-well plates were infected with HSV-1 Cgal and incubated for 1 h at 37°C. Then, cells were covered with DMEM/F12 2% or media containing 10 μM of compound 1 and 5 μM of compound 2. After incubation for 24 h, cells were stained in situ for β-gal. […]

[6] = tested on: IL-6; test: IL-6 secretion in HSV-1-infected Neuro-2a cells (ELISA); format: cell-based, Murine; settings: HSV-1 KOS-infected Neuro-2a cells, 10 μM compound 1 / 5 μM compound 2, 24 h; for IL-6 levels, reduction: vs untreated infected cells; for IL-6 levels: infected control 659.6 ± 14.8
Protocol: (§6) Neuro-2a cells grown in 24-well plates were infected with HSV-1 at a multiplicity of infection (m.o.i.) of 1. After 24 h of incubation at 37°C cells supernatants were harvested and cytokines were quantified. Murine IL-6 and IFN-gamma were quantified by commercial ELISA sets (BD OptEIATM, Becton Dickinson, USA) according to manufacturer instructions.
(§7) On the other hand, compound 2 increases IL-6 levels in human epithelial cells infected with HSV-1 [12]. […] For that purpose, we used those supernatants in which the antiviral effect of compounds 1 and 2 was found (Figure 3(b)). IL-6 and IFN-γ secretion reached 659.6 ± 14.8 pg/mL and 154.7 ± 7.2 pg/mL in HSV-1 infected control cells, respectively. […] IFN-γ levels dropped to 72.3 ± 4.9 pg/mL (P < 0.006) (53.3%) and to 53 ± 4.2 pg/mL (P < 0.001) (65.7%) with respect to untreated infected cells after treatment with 1 and 2. Thus, compounds 1 and 2 might display an anti-inflammatory activity in HSV-1-infected Neuro-2a cells.

[7] = tested on: IFN-γ; test: IFN-gamma secretion in HSV-1-infected Neuro-2a cells (ELISA); format: cell-based, Murine; settings: HSV-1 KOS-infected Neuro-2a cells, 10 μM compound 1 / 5 μM compound 2, 24 h; for IFN-γ levels: infected control 154.7 ± 7.2
Protocol: as §6, §7

[8] = tested on: TNF-α; set-up: method as in earlier work; settings: compound 1: HSV-1-infected epithelial cells; compound 2: IOBA-NHC cells; Michelini, personal communication; cited from earlier work
[9] = tested on: IL-6; set-up: method as in earlier work; settings: HSV-1-infected epithelial cells (IOBA-NHC and HCLE); Michelini, personal communication; cited from earlier work
[10] = tested on: glucocorticoid receptors (GR); set-up: method as in Michelini, personal communication; settings: ref Michelini, personal communication; cited from earlier work
[11] = tested on: glucocorticoid receptors (GR); set-up: method as in Michelini, personal communication; settings: ref Michelini, personal communication; cited from earlier work; remark: listed apart in the source
[12] = tested on: IOBA-NHC cells; settings: cited from earlier work
[13] = tested on: HSV-1 KOS wt strain; test: HSV-1 KOS wt virus yield reduction in nervous cell lines (plaque assay); format: cell-based, herpes simplex virus type 1; settings: SH-SY5Y cells, m.o.i. 1, 5 μM compound 2, 24 h
Protocol: as §4
Neuro-2a, PC-12, and SH-SY5Y cells grown in 24-well plates were infected with HSV-1 KOS wt strain at m.o.i. of 1. After 24 h of incubation at 37°C, supernatants were collected and titrated in Vero cells.
Figure 3 Effect of compounds 1 and 2 on HSV-1 virus yield reduction. (a) PC-12, (b) Neuro-2a, and (c) SH-SY5Y cells were infected with HSV-1 KOS (black bars) and HSV-1 Cgal (grey bars) and incubated for 1 h at 37°C. Then, cells were covered with DMEM/F12 2% or media containing 10 μM of compound 1 and 5 μM of compound 2. After 24 h supernatants were harvested and viral titres were determined by plaque assay. Bars show average of two replicates ± SD. *P < 0.05, with respect to untreated infected cells.

| SMILES | CC50 at 24 h [1] [µM] | CC50 at 24 h [2] [µM] | CC50 at 24 h [3] [µM] | reduction in viral yields [4] | HSV-1 Cgal propagation (β-gal stained cells) [5] | IL-6 levels, reduction [6] [%] | IL-6 levels [6] [pg/mL] | IFN-γ levels, drop with respect to untreated infected cells [7] [%] | IFN-γ levels [7] [pg/mL] | effect on TNF-α levels [8] | effect on IL-6 levels [9] | binding to glucocorticoid receptors (GR) [10] | induction of glucocorticoid activity via GR activation [11] | CC50 [12] [µM] | inhibition of HSV-1 yield [13] [logs] |
| --- | --- | --- | --- | --- | --- | --- | --- | --- | --- | --- | --- | --- | --- | --- | --- |
| CC[C@@H](C(C)C)[C@H](O)[C@@H](O)[C@@H](C)[C@H]1CC[C@H]2[C@@H]3CCC4=CC(=O)CC[C@]4(C)[C@H]3CC[C@]12C [Compound 1, (22S,23S)-22,23-dihydroxystigmast-4-en-3-one] | 77.2 | 80.4 | > 144 | 1-2 log | only scattered stained cells | 46.2 | 355.4 ± 10.9 | 53.3 | 72.3 ± 4.9 | does not reduce | does not reduce | none of them was able to bind | none of them was able to | 71.2 | – |
| CC[C@@H](C(C)C)[C@H](O)[C@@H](O)[C@@H](C)[C@H]1CC[C@H]2[C@@H]3CC(=O)[C@@]4(O)C[C@@H](Br)CC[C@]4(C)[C@H]3CC[C@]12C [Compound 2, (22S,23S)-3β-bromo-5α,22,23-trihydroxystigmastan-6-one] | 70 | 65.2 | > 129 | 1-2 log | only scattered stained cells | 41.1 | 388.2 ± 11.4 | 65.7 | 53 ± 4.2 | inhibits | increases | none of them was able to bind | none of them was able to | > 277 | ~2 |
